Experimental data published in publication PMC13422867, “An orally available PfPKG inhibitor blocks Plasmodium’s infection of the liver” (PLOS Pathogens, 2026).

Test system: P. falciparum 3D7
Experiment: Asexual blood stage growth inhibition, SYBR Green I, 72 h
Assay type: cell-based
Conditions: Plasmodium falciparum, mean (standard error) of 3 biological replicates
Procedure: Asexual blood stage P. falciparum strains, including 3D7 and drug-resistant field isolates, were cultured using standard conditions in RPMI 1640 with 0.5% Albumax as described previously. EC₅₀ values were determined using a SYBR Green I fluorescence assay after 72 h of compound exposure. EC50 values were derived by nonlinear regression in GraphPad Prism version 10.

Question: For C[C@@H]1CN(C)CC[C@@H]1c1cc(-c2ccncc2)c(-c2ccc(F)cc2)[nH]1.Cl.Cl [RUPB-61, 4-{5-[(3S,4S)-1,3-Dimethylpiperidin-4-yl]-2-(4-fluorophenyl)-1H-pyrrol-3-yl}pyridine Dihydrochloride], which IC50 is on record?
Answer: The IC50 was 50 nM.
